Counter-ions that a name gives are not always drawn.

T2 sequence (P10636 1-441 isoform P10636-8): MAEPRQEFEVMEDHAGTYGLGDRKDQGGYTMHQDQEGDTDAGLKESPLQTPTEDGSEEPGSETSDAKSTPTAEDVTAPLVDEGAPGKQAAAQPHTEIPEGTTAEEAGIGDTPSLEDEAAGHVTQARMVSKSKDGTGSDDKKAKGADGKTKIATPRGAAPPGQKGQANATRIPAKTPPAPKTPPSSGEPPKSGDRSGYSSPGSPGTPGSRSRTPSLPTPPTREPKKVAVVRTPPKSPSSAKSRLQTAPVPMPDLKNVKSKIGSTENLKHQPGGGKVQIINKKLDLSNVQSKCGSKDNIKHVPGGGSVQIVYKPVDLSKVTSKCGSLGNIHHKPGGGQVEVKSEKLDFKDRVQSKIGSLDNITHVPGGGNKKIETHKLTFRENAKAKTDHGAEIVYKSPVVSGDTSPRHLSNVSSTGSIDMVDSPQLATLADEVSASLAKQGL
T1 sequence (P10636 1-441 isoform P10636-8 P301L): as the sequence (P10636 1-441 isoform P10636-8) above, with P301L counted along it
T3 sequence (P10636 561-689): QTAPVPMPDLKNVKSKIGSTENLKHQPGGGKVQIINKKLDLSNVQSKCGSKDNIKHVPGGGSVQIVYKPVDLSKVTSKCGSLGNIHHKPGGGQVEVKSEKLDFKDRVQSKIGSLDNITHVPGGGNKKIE

One experiment concerns the target T1, Aggregated human Tau in human neuroblastoma cell line overexpressing full-length human Tau P301L (Homo sapiens, UniProt P10636, P618L).
T1 construct: overexpressing the full-length form of human Tau carrying the P301L mutation; expressed in transfected cells; host or cells: human neuroblastoma cell line (G418 selection)
In words: Reduction of intracellular Tau aggregation (AlphaLISA, aggregated Tau normalized to total Tau). The class given is cell-based. Particulars: compound at 5 μM, 24 h, relative to DMSO-treated cells. As to the method:
Reduction of Intracellular Tau Aggregation
A human neuroblastoma cell line overexpressing the full-length form of human Tau carrying the P301L mutation was cultured in complete medium [DMEM-F12 4.5 g/L Glutamax (Invitrogen), 15% FBS (Biochrom), 1% Peni/Strep (Invitrogen) supplemented with 2.5 μg/ml of G418 (Sigma-Aldrich) selection antibiotic]. The day before the experiment 5×10^5 cells/well were plated in a 6 well plate in 3 mL of complete medium. The next day, cells were incubated with DMSO or a compound of the present invention at 5 μM for additional 24 h at 37° C. After incubation, cells were trypsinized, resupsended in 100 μl of homogenization buffer [25 mM Tris-HCl pH 7.4, 150 mM NaCl, 1 mM EDTA, 1 mM EGTA containing phosphatase inhibitors (30 mM NaF, 0.2 mM Na3VO4, 1 nM okadaic acid, 1 mM PMSF, 5 mM Na4P2O7) and protease inhibitor cocktail (Complete™, Roche)], and then physically lysed with three rapid cycles of freezing and thawing. Samples were then directly tested in the AlphaLISA assay.
Phosphorylated, aggregated, and total Tau were quantified by AlphaLisa using the following antibody pairs: • HT7-Acceptor beads+biotin (BT)-Tau13-Donor beads: Total Tau • HT7-Acceptor beads+biotin (BT)-HT7-Donor beads: Aggregated human Tau
The Tau13 (Abcam) was biotinylated using EZ-Link® NHS-PEO Solid Phase biotinylation kit (Thermo Scientific), while the HT7-biotin was from a commercial source (Thermo Scientific).
For each antibody pairs the concentration of acceptor beads and biotinylated antibodies was optimized. All samples were first tested in a dilution series in PBS in order to identify the linear range and optimal dilution for each sample and assay. For the final protocol, the following reagents were added in a 384-well white OptiPlate (PerkinElmer): • 5 μL of test diluted sample • 20 μL of the mixture biotin-mAb acceptor beads at the following final concentrations: • HT7-BT at 1.25 nM in combination with HT7-Acc beads at 10 μg/ml • Tau13-BT at 5 nM in combination with HT7-Acc beads at 2.5 μg/ml
After incubation of this mixture at room temperature for 1 h, 25 μL of Streptavidin Donor beads (Perkin Elmer) at 25 μg/mL were added in the dark. Plates were analyzed after 30 min incubation using the EnSpire Alpha instrument and EnSpire Workstation version 3.00. Data for aggregated Tau were normalized to total Tau and then expressed as percentage of the DMSO-treated cells.
In general terms: Alpha assays give light when donor and acceptor beads are brought close together.
Regarding `Cn1c2c(c3ccccc31)CCN(c1ccc(N3CCOCC3)cn1)C2` [Example 45], the “% Reduction of intracellular Tau aggregation” value (“% Reduction” below) is on record as “++ (++ % 50 < x < 25)”.

In the case of `c1ccc2c3c([nH]c2c1)CN(c1ccc(N2CCOCC2)cn1)CC3` [Example 43], the “% Reduction” value was “++ (++ % 50 < x < 25)”.

Regarding `c1ccc2c3c([nH]c2c1)CN(c1ccc2nc(N4CCOCC4)sc2c1)CC3` [Example 38], the “% Reduction” value is given as “+ (+ % 25 < x < 10)”.

For `CN(C)c1nc2ccc(N3CCc4c(n(C)c5ccc(F)cc45)C3)cc2o1` [Example 12], the “% Reduction” value was “+ (+ % 25 < x < 10)”.

In the case of `COc1ccc2c(c1)c1c(n2C)CN(c2ccc3oc(N(C)C)nc3c2)CC1` [Example 21], the “% Reduction” value is given as “+ (+ % 25 < x < 10)”.

Another experiment has as its target T2, recombinant full-length (fl)Tau aggregates (longest isoform of human Tau, 2N4R; 441 amino acids) (Homo sapiens, UniProt P10636).
T2 construct: 35 μM of recombinant full-length (fl)Tau in PBS were aggregated for 24 hours; made in house; host or cells: bacteria
Kind of experiment: Full-length Tau (flTau) disaggregation assay by Thioflavin T (ThT). The class given is biochemical. Particulars: ThT fluorescence; 2 μM flTau aggregates, 30 minutes at RT. As to the method:
Full-Length Tau (flTau) Disaggregation Assay by Thioflavin T (ThT)
The longest isoform of human Tau (2N4R; 441 amino acids) was expressed in bacteria and purified. For the Tau disaggregation assay by ThT, 35 μM of recombinant full-length (fl)Tau in PBS were aggregated for 24 hours at 37° C. in presence of 50 μM of heparin (Sigma-Aldrich) and 10 mM of DTT (Sigma-Aldrich) under shaking at 750 RPM. Compounds were dissolved in anhydrous dimethyl sulfoxide (DMSO, Sigma-Aldrich) to reach a concentration of 10 mM. flTau aggregates and serial dilutions of compounds were mixed together in PBS (volume 50 μL) to a final concentration of 2 μM of flTau aggregates and from 160 to 0.04 μM of compounds. The mixture was incubated for 30 minutes at room temperature (RT), then 40 μL of this mixture were transferred into a black 384-well plate assay (Perkin-Elmer) and mixed with 10 μL of 100 μM ThT in 250 mM glycine (both from Sigma-Aldrich) in PBS. Fluorescence (relative fluorescence units; RFU) was measured in monoplicate or duplicate on a Tecan reader (excitation: 440 nm; emission: 485 nm). Percentage of flTau disaggregation was then calculated and the half maximal effective concentration (EC50) was determined using GraphPad Prism version 5 (GraphPad Software) assuming a one-binding site fitting model.
Regarding `COc1ccc2c(c1)c1c(n2C)CN(c2ccc3oc(N4CCOCC4)nc3c2)CC1` [Example 16], the EC50 was below 10 µM.

With `Cn1c2c(c3ccc(F)cc31)CCN(c1ccc3nc(N4CCOCC4)sc3c1)C2` [Example 6], the half-maximal effective concentration (EC50) was below 10 µM.

On to `Cn1c2c(c3cc(F)cnc31)CCN(c1ccc(N3CCOCC3)cn1)C2` [Example 107 HCl], for which the 50% effective concentration (EC50) was in the range of 25 to 50 µM.

For `c1ccc2c3c([nH]c2c1)CN(c1ccc(N2CCOCC2)nc1)CC3` [Example 44 HCl], the EC50 was below 10 µM.

Consider `CN(C)c1nc2ccc(N3CCc4c(n(C)c5ccccc45)C3)cc2s1` [Example 2], for which the EC50 was below 10 µM.

Consider `Cn1c2c(c3cccnc31)CCN(c1ccc(N3CCOCC3)nc1)C2` [Example 105 HCl], for which the concentration for a half-maximal effect (EC50) was in the range of 25 to 50 µM.

Consider `CCn1c2c(c3ccccc31)CCN(c1ccc(N3CCOCC3)nc1)C2` [Example 123 HCl], for which the EC50 is below 10 µM.

Turning to `Cn1c2c(c3ccc(F)cc31)CCN(c1ccc(N3CCOCC3)cn1)C2` [Example 111 HCl], the half-maximal effective concentration (EC50) is below 10 µM.

For `Cn1c2c(c3cc(F)ccc31)CCN(c1ccc3oc(N4CCOCC4)nc3c1)C2` [Example 104], the concentration giving a half-maximal response (EC50) is below 10 µM.

In the case of `Cn1c2c(c3ccccc31)CCN(c1ccc3nc(N4CCOCC4)sc3c1)C2` [Example 1], the 50% effective concentration (EC50) is below 10 µM.

On to `c1ccc2c3c([nH]c2c1)CN(c1ccc(N2CC4(CCOCC4)C2)nc1)CC3` [Example 80 HCl], for which the EC50 lay in the range of 10 to 25 µM.

For `Fc1ccc2c3c([nH]c2c1)CN(c1ccc(N2CCOCC2)nc1)CC3` [Example 108 HCl], the EC50 is below 10 µM.

With `COc1ccc2c(c1)c1c(n2C)CN(c2ccc3nc(N4CCOCC4)sc3c2)CC1` [Example 15], the EC50 is below 10 µM.

For `COc1ccc2c(c1)c1c(n2C)CN(c2ccc3sc(N(C)C)nc3c2)CC1` [Example 17], the EC50 was below 10 µM.

As for `CN(C)c1nc2cc(N3CCc4c(n(C)c5ccc(F)cc45)C3)ccc2s1` [Example 11], the EC50 was below 10 µM.

Regarding `CN(C)c1nc2cc(N3CCc4c(n(C)c5ccc(F)cc45)C3)ccc2o1` [Example 13], the concentration for a half-maximal effect (EC50) is below 10 µM.

Regarding `c1ccc2c3c([nH]c2c1)CN(c1ccc(N2C[C@H]4C[C@@H]2CO4)nc1)CC3` [Example 85 HCl], the 50% effective concentration (EC50) lay within 10 to 25 µM.

Consider `c1ccc2c3c([nH]c2c1)CN(c1ccc(N2CC4CC(C2)O4)nc1)CC3` [Example 71 HCl], for which the EC50 is 10 to 25 µM.

Turning to `COc1ccc2c(c1)c1c(n2C)CN(c2ccc3nc(N(C)C)oc3c2)CC1` [Example 19], the EC50 is below 10 µM.

Regarding `COc1ccc2c(c1)c1c(n2C)CN(c2ccc3sc(N4CCOCC4)nc3c2)CC1` [Example 14], the EC50 was below 10 µM.

With `c1ccc2c3c([nH]c2c1)CN(c1ccc(N2CCC4(CC2)COC4)nc1)CC3` [Example 83 HCl], the EC50 lay within 25 to 50 µM.

As to `C[C@H]1COCCN1c1ccc(N2CCc3c([nH]c4ccccc34)C2)cn1` [Example 79 HCl], the 50% effective concentration (EC50) was in the range of 10 to 25 µM.

Regarding `COc1ccc2c(c1)c1c(n2C)CN(c2ccc3nc(N(C)C)sc3c2)CC1` [Example 18], the concentration for a half-maximal effect (EC50) is below 10 µM.

As for `Cn1c2c(c3ccccc31)CCN(c1ccc(N3CCOCC3)cn1)C2` [Example 45 HCl], the 50% effective concentration (EC50) is below 10 µM.

Take `C[C@H]1CN(c2ccc(N3CCc4c([nH]c5ccccc45)C3)cn2)CCO1` [Example 74 HCl]: the half-maximal effective concentration (EC50) was below 10 µM.

In the case of `CN(C)c1nc2ccc(N3CCc4c(n(C)c5ccc(F)cc45)C3)cc2o1` [Example 12], the half-maximal effective concentration (EC50) is below 10 µM.

As to `c1ccc2c3c([nH]c2c1)CN(c1ccc(N2CC4COCC4C2)nc1)CC3` (stereo not drawn) [Example 69 HCl], the half-maximal effective concentration (EC50) is below 10 µM.

With `Cn1c2c(c3ccc(F)cc31)CCN(c1ccc3sc(N4CCOCC4)nc3c1)C2` [Example 7], the EC50 was below 10 µM.

As to `C[C@@H]1CN(c2ccc(N3CCc4c([nH]c5ccccc45)C3)cn2)CCO1` [Example 75 HCl], the EC50 is below 10 µM.

For the compound `Cn1c2c(c3ccccc31)CCN(c1ccc(N3CCOCC3)nc1)C2` [Example 46 HCl], the concentration giving a half-maximal response (EC50) lay within 10 to 25 µM.

For `Cn1c2c(c3ccc(F)cc31)CCN(c1ccc(N3CCOCC3)nc1)C2` [Example 110 HCl], the EC50 was below 10 µM.

Consider `COc1cc(N2CCc3c(n(C)c4ccc(F)cc34)C2)ccc1F` [Example 9], for which the 50% effective concentration (EC50) was below 10 µM.

On to `Cn1c2c(c3cc(F)ccc31)CCN(c1ccc(N3CCOCC3)nc1)C2` [Example 8], for which the EC50 is below 10 µM.

Regarding `Fc1ccc2c3c([nH]c2c1)CN(c1ccc(N2CCOCC2)cn1)CC3` [Example 109 HCl], the EC50 is below 10 µM.

In the case of `c1ccc2c3c([nH]c2c1)CN(c1ccc(N2C[C@@H]4C[C@H]2CO4)nc1)CC3` [Example 86 HCl], the half-maximal effective concentration (EC50) is below 10 µM.

On to `C[C@@H]1CN(c2ccc(N3CCc4c([nH]c5ccccc45)C3)cn2)C[C@H](C)O1` [Example 76 HCl], for which the EC50 is below 10 µM.

A further experiment has as its target T3, Tau K18 fragment aggregates (amino acids 244 to 372 of human Tau441) (Homo sapiens, UniProt P10636).
T3 construct: encompassing amino acids 244 to 372 of the longest isoform (2N4R) of human Tau441; host or cells: bacteria
Kind of experiment: Tau K18 disaggregation assay by ThT. Type of experiment: biochemical. Particulars: ThT fluorescence; 2 μM K18 aggregates, 30 minutes at RT. The method, then:
Tau K18 Disaggregation Assay by ThT
The Tau K18 fragment, encompassing amino acids 244 to 372 of the longest isoform (2N4R) of human Tau441, was expressed in bacteria and purified or bought from SignalChem. For the K18 disaggregation assay by ThT, 35 μM of recombinant K18 in PBS were aggregated for 24 hours at 37° C. in presence of 50 μM of heparin (Sigma-Aldrich) and 10 mM of DTT (Sigma-Aldrich) under shaking at 750 RPM. Compounds were dissolved in anhydrous dimethyl sulfoxide (DMSO, Sigma-Aldrich) to reach a concentration of 10 mM. K18 aggregates and serial dilutions of compounds were mixed together in PBS (volume 50 μL) to a final concentration of 2 μM of K18 aggregates and from 160 to 0.04 μM of compounds. The mixture was incubated for 30 minutes at room temperature (RT), then 40 μL of this mixture were transferred into a black 384-well plate assay (Perkin-Elmer) and mixed with 10 μL of 100 μM ThT in 250 mM glycine (both from Sigma-Aldrich) in PBS. Fluorescence (relative fluorescence units; RFU) was measured in monoplicate or duplicate on a Tecan reader (excitation: 440 nm; emission: 485 nm). Percentage of K18 disaggregation was then calculated and half maximal effective concentration (E050) was determined using GraphPad Prism version 5 (GraphPad Software) assuming a one-binding site fitting model.
With `Cn1c2c(c3ccccc31)CCN(c1ccc(N3CCOCC3)cn1)C2` [Example 45], the concentration for a half-maximal effect (EC50) is below 10 µM.

The compound `c1ccc2c3c([nH]c2c1)CN(c1ccc(N2CCOCC2)cn1)CC3` [Example 43] had an EC50 below 10 µM.

Compound `c1ccc2c3c([nH]c2c1)CN(c1ccc2nc(N4CCOCC4)sc2c1)CC3` [Example 38] returned a concentration for a half-maximal effect (EC50) below 10 µM.

`COc1ccc2c(c1)c1c(n2C)CN(c2ccc3oc(N(C)C)nc3c2)CC1` [Example 21] registered a concentration giving a half-maximal response (EC50) below 10 µM.

The EC50 is the concentration that produces a half-maximal response.

For the origin of these results see patent US20210267989A1, “Novel Compounds for the Treatment, Alleviation or Prevention of Disorders Associated with Tau Aggregates” (AC Immune SA, priority 2018, published 2021).
